Test results reported in PubChem BioAssay AID2060512 (Molecular Pharmacology Branch, DTP, NCI, 2025).
pIC50: −log10 of the molar value. Values joined by “and” are separate entries in the source; they are usually repeats but may differ in a detail not shown here. Equal entries are not always repeated.

Tested on: 186277-243-T-J2-PDC complex spheroid viability
Experiment: Anticancer human tumor 186277-243-T-J2-PDC patient-derived colon adenocarcinoma cell line growth inhibition [GQUAD]
Settings: for viability, T/C: stronger effect = lower value; active = viability on the fitted dose curve at most 10% of control; inactive = the rest
Excerpt: DNA G-quadruplex Stabilizer Agents in Combinations in Complex Spheroids
A high-throughput screen of multi-cell type tumor spheroids was designed to identify active combinations of DNA G-quadruplex stabilizer agents and targeted small molecules. Complex spheroids include a stromal component modeled by human endothelial cells (HUVEC) and fibroblasts modeled by human mesenchymal stem cells (MSCs). The concentration ranges selected for each drug and investigational agent were based upon clinically achievable concentrations if the clinical Cmax of the agent was known.
Compounds. The drugs and investigational agents: pidnarulex (CX-5461; NSC782164), APTO-253 (NSC789042), BRACO-19 (NSC847499), peposertib (NSC802822), ceralasertib (NSC780249), elimusertib (NSC800525), camonsertib (NSC841442), AZD-1390 (NSC803789), olaparib (NSC753686), talazoparib (NSC767125), ART-558 (NSC835418), sotorasib (NSC818433), MRTX-1133 (NSC836407), SN-38 (NSC673596), topotecan (NSC609699), etoposide (NSC141540), doxorubicin (NSC123127), gemcitabine (NSC613327), 5-fluorouracil (NSC19893), paclitaxel (NSC125973), vemurafenib (NSC761431), panobinostat (NSC761190), R-306465 (JNJ-16241199; NSC773264), adavosertib (NSC754352), TP-3654 (NSC805149), carboplatin (NSC241240), KSQ-4279 (NSC840948), and staurosporine (NSC755774) were obtained from the National Cancer Institute (NCI) Developmental Therapeutics Program Chemical Repository (34). The FDA-approved anticancer drug set is available from the NCI Developmental Therapeutics Program. […] The stock solutions were prepared in dimethyl sulfoxide (DMSO, Sigma-Aldrich, St. Louis, MO, cat. D2650) at 800-fold the tested concentration and stored at -70 degrees C prior to their use. All drugs and investigational agents were tested over a range starting from a high concentration at or near the clinical Cmax and decreasing in half-log increments. If the clinical Cmax for an agent had not been determined, the highest concentration tested was 10 microM.
2.3 Cell Culture. All cells were maintained in an incubator at 37 degrees C and 5% CO2 with 95% humidity. The PDC lines were cultured according to standard operating procedures established by the NCI PDMR. All PDCs were thawed and cultured in Matrigel-coated flasks prepared with a working solution of 1X Ham's F-12 nutrient mix, without supplementation (Invitrogen, cat. 11765054), 100 U/mL penicillin-streptomycin (Invitrogen, cat. 15140122), and 2.5% Matrigel (Corning Inc., cat. 354248) for the first three passages. The 857933-349-R-J2-PDC line was cultured in 6C/Colon 1B media, which includes advanced DMEM/F-12 (Thermo Fisher Scientific, cat. 12634028), 10 mM HEPES (Thermo Fisher Scientific, cat. 15630080), 1X GlutaMAX supplement (Thermo Fisher Scientific, cat. 35050061), 0.1 mg/mL primocin (InvivoGen, cat. ant-pm-2), 10% defined fetal bovine serum, heat inactivated (HyClone Laboratories Inc., cat. SH30070.03HI), 50% L-WRN conditioned media (ATCC, cat. CRL-3276), 1.25 mM N-Acetyl-L-cysteine (Sigma-Aldrich, cat. A9165), 10 mM nicotinamide (Sigma-Aldrich, cat. N0636), 1X B-27 supplement (Thermo Fisher Scientific, cat. 17504044), 1X N-2 supplement (Thermo Fisher Scientific, cat. 17502048), 10 microM Y-27632 dihydrochloride (Tocris Bioscience, cat. 1254), and 50 ng/mL human EGF recombinant protein (Thermo Fisher Scientific, cat. PHG0311). The 485176-168-R4-J1-PDC line was cultured in Panc media, which includes all 6C/Colon 1B media components plus 100 ng/mL human FGF-10 (Thermo Fisher Scientific, cat. 100-26), 500 nM SB-431542 (Selleckchem, cat. S1067), and gastrin (Tocris, cat. 3006).
[…]

[1] = compound alone, run of 04/22/2024
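Note: spheroids exposed to drugs for 7 days.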

CN(C)c1ccc(Nc2c3ccc(NC(=O)CCN4CCCC4)cc3nc3cc(NC(=O)CCN4CCCC4)ccc23)cc1
inactive: viability, T/C (compound 0.1 µM) 97.8% [middle of 12 runs] | viability, T/C (compound 0.316 µM) 101% [middle of 12 runs] | viability, T/C (compound 1 µM) 101% [middle of 12 runs] | viability, T/C (compound 10 µM) 99.7% [middle of 12 runs]
< 5.00: pIC50 [1]

CC(C)(O)C1CCC(Nc2ccc3ncc(-c4cccc(C(F)(F)F)c4)n3n2)CC1 (stereo unspecified)
5.20 and 5.52 and < 5.00: pIC50 (curve of compound)
inactive: viability, T/C (compound 0.0316 µM) 82.3% and 96.5% and 103% | viability, T/C (compound 0.1 µM) 106% and 97.7% and 92.2% | viability, T/C (compound 0.316 µM) 101% and 99.8% and 99.6% | viability, T/C (compound 1 µM) 83.7% and 85.5% and 105% | viability, T/C (compound 3.16 µM) 55.3% and 49% and 56.7% | viability, T/C (compound 10 µM) 46.4% and 46% and 50%

O=C(c1cc(Cc2n[nH]c(=O)c3ccccc23)ccc1F)N1CCN(C(=O)C2CC2)CC1
inactive: viability, T/C (compound 0.0316 µM) 102% and 105% and 100% | viability, T/C (compound 0.1 µM) 108% (2×) and 94.6% | viability, T/C (compound 0.316 µM) 96.4% and 112% and 87.3% | viability, T/C (compound 1 µM) 94.3% and 104% and 77.3% | viability, T/C (compound 3.16 µM) 93.3% and 92% and 82.2% | viability, T/C (compound 10 µM) 62.3% and 64.2% and 66.5%
< 5.00: pIC50 (curve of compound)

C#Cc1c(F)ccc2cc(O)cc(-c3ncc4c(N5CC6CCC(C5)N6)nc(OCC56CCCN5CC(F)C6)nc4c3F)c12 (stereo unspecified)
inactive: viability, T/C (compound 0.0316 µM) 99.9% and 94.8% and 64% | viability, T/C (compound 0.1 µM) 59.1% and 30.1% and 46.2% | viability, T/C (compound 0.316 µM) 26% and 13.2% and 19.2%
17.8% and 7.17% and 7.07%: viability, T/C (compound 3.16 µM)
10.2% and 5.44% and 5.48%: viability, T/C (compound 10 µM)
6.86 and 7.15 and 7.11: pIC50 (curve of compound)
14.4% and 7.76% and 10.2%: viability, T/C (compound 1 µM)

COc1cc(C2c3cc4c(cc3C(OC3OC5COC(C)OC5C(O)C3O)C3COC(=O)C23)OCO4)cc(OC)c1O (stereo unspecified)
inactive: viability, T/C (compound 0.0316 µM) 103% and 110% and 100% | viability, T/C (compound 0.1 µM) 100% and 101% and 85.4% | viability, T/C (compound 0.316 µM) 102% and 83.6% and 82.1% | viability, T/C (compound 1 µM) 72.1% and 50.7% and 50% | viability, T/C (compound 3.16 µM) 52.7% and 37% and 36.2% | viability, T/C (compound 10 µM) 19.4% and 20.9% and 16.9%
5.50 and 5.90 and 5.88: pIC50 (curve of compound)

Cc1[nH]c2ccc(F)cc2c1-c1nc2c3cccnc3c3ncccc3c2[nH]1
inactive: viability, T/C (compound 0.0316 µM) 100% [middle of 12 runs] | viability, T/C (compound 0.1 µM) 101% [middle of 12 runs] | viability, T/C (compound 1 µM) 107% [middle of 12 runs] | viability, T/C (compound 3.16 µM) 98.9% [middle of 12 runs] | viability, T/C (compound 10 µM) 92.4% [middle of 12 runs]
< 5.00: pIC50 (compound alone, run of 04/16/2024) | pIC50 [1]

Cc1[nH]c2ccccc2c1CCNCc1ccc(/C=C/C(=O)NO)cc1
active: viability, T/C (compound 0.316 µM) 0.49% and 2.16% and 2.64%
18.4% and 8.39% and 19.1%: viability, T/C (compound 0.0999 µM)
inactive: viability, T/C (compound 0.000999 µM) 107% and 92.7% and 99% | viability, T/C (compound 0.00316 µM) 89.4% and 96.9% and 90% | viability, T/C (compound 0.00999 µM) 92.2% and 94.9% and 101% | viability, T/C (compound 0.0316 µM) 60% and 92.1% and 97.2%
7.38 and 7.25 and 7.20: pIC50 (curve of compound)

COc1ccc([C@@H](O)c2cc(-c3ncnc4cc(N5CCOCC5)ccc34)c(F)cc2Cl)nn1
inactive: viability, T/C (compound 0.0316 µM) 97.6% and 103% (2×) | viability, T/C (compound 0.1 µM) 84.1% and 107% and 101% | viability, T/C (compound 0.316 µM) 115% and 112% and 97.2% | viability, T/C (compound 1 µM) 95.7% and 90.8% and 108% | viability, T/C (compound 3.16 µM) 63% and 66.2% and 70% | viability, T/C (compound 10 µM) 41.8% and 24.9% and 33.5%
5.19 and 5.31 and 5.23: pIC50 (curve of compound)

CC1COCCN1c1cc(C2(S(C)(=N)=O)CC2)nc(-c2ccnc3[nH]ccc23)n1 (stereo unspecified) + Cc1cnc(CNC(=O)c2c(=O)c3ccc(N4CCCN(C)CC4)nc3n3c2sc2ccccc23)cn1
inactive: viability, T/C (second compound 0.0316 µM, first compound 0.0316 µM) 107% | viability, T/C (second compound 0.0316 µM, first compound 0.1 µM) 92.4% | viability, T/C (second compound 0.0316 µM, first compound 0.316 µM) 89.8% | viability, T/C (second compound 0.0316 µM, first compound 1 µM) 39.4% | viability, T/C (second compound 0.0316 µM, first compound 3.16 µM) 13.1% | viability, T/C (second compound 0.1 µM, first compound 0.0316 µM) 101% | viability, T/C (second compound 0.1 µM, first compound 0.1 µM) 73.4% | viability, T/C (second compound 0.1 µM, first compound 0.316 µM) 68.2% | viability, T/C (second compound 0.1 µM, first compound 1 µM) 39.8% | viability, T/C (second compound 0.1 µM, first compound 3.16 µM) 18.4% | viability, T/C (second compound 0.316 µM, first compound 0.0316 µM) 73.3% | viability, T/C (second compound 0.316 µM, first compound 0.1 µM) 83.1% | viability, T/C (second compound 0.316 µM, first compound 0.316 µM) 66.7% | viability, T/C (second compound 0.316 µM, first compound 1 µM) 47.5% | viability, T/C (second compound 0.316 µM, first compound 3.16 µM) 27.2% | viability, T/C (second compound 0.316 µM, first compound 10 µM) 17% | viability, T/C (second compound 1 µM, first compound 0.0316 µM) 46.2% | viability, T/C (second compound 1 µM, first compound 0.1 µM) 64.6% | viability, T/C (second compound 1 µM, first compound 0.316 µM) 64.6% | viability, T/C (second compound 1 µM, first compound 1 µM) 41.6% | viability, T/C (second compound 1 µM, first compound 3.16 µM) 31.6% | viability, T/C (second compound 1 µM, first compound 10 µM) 21.3% | viability, T/C (second compound 3.16 µM, first compound 0.0316 µM) 41.8% | viability, T/C (second compound 3.16 µM, first compound 0.1 µM) 48.6% | viability, T/C (second compound 3.16 µM, first compound 0.316 µM) 50.6% | viability, T/C (second compound 3.16 µM, first compound 1 µM) 44.5% | viability, T/C (second compound 3.16 µM, first compound 3.16 µM) 39.2% | viability, T/C (second compound 3.16 µM, first compound 10 µM) 19.4% | viability, T/C (second compound 10 µM, first compound 0.0316 µM) 50.6% | viability, T/C (second compound 10 µM, first compound 0.1 µM) 52% | viability, T/C (second compound 10 µM, first compound 0.316 µM) 43.2% | viability, T/C (second compound 10 µM, first compound 1 µM) 37% | viability, T/C (second compound 10 µM, first compound 3.16 µM) 31.6% | viability, T/C (second compound 10 µM, first compound 10 µM) 22%
7.18: pIC50 (curve of first compound, second compound 10 µM)
6.24: pIC50 (curve of first compound, second compound 0.1 µM)
6.10: pIC50 (curve of first compound, second compound 0.0316 µM)
6.25: pIC50 (curve of first compound, second compound 1 µM)
6.05: pIC50 (curve of first compound, second compound 0.316 µM)
active: viability, T/C (second compound 0.0316 µM, first compound 10 µM) 8.67% | viability, T/C (second compound 0.1 µM, first compound 10 µM) 9.76%
> 7.50: pIC50 (curve of first compound, second compound 3.16 µM)
